Reference: US20230183193A1, “4-DIFLUOROMETHYL BENZOYL AMIDES WITH HERBICIDAL ACTION” (BAYER CROPSCIENCE AKTIENGESELLSCHAFT, priority 2017, published 2023)

Tests used:
Assay type in all cases: in vivo
Alopecurus myosuroides [1] = test: Pre-emergence herbicidal action, ALOMY; details: dosage 320 g/ha, scored visually after 3 weeks vs untreated controls
In short: (§1)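 Percent herbicidal activity rated by eye 3 weeks after pre-emergence soil-surface application, compared with untreated pots. Seeds sat under sandy loam; sprays carried 0.2% wetting agent.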

Avena fatua [2] = test: Pre-emergence herbicidal action, AVEFA; details: dosage 320 g/ha, scored visually after 3 weeks vs untreated controls
In short: as §1

Abutilon theophrasti [3] = test: Pre-emergence herbicidal action, ABUTH; details: dosage 320 g/ha, scored visually after 3 weeks vs untreated controls
In short: as §1

Matricaria inodora = test: Pre-emergence herbicidal action, MATIN; details: dosage 320 g/ha, scored visually after 3 weeks vs untreated controls
In short: as §1

Avena fatua [4] = test: Post-emergence herbicidal action, AVEFA; details: 80 g/ha, Table C
In short: (§2)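 Post-emergence spray; one-leaf stage (2–3 wk after sowing), sandy loam, greenhouse. WP/EC in water, 600 to […], +0.2% wetting agent. Visual % damage vs untreated at ~3 wk; 100% = plants dead.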

Amaranthus retroflexus [5] = test: Post-emergence herbicidal action, AMARE; details: 80 g/ha, Table D
In short: as §2

Abutilon theophrasti [6] = test: Post-emergence herbicidal action, ABUTH; details: 80 g/ha, Table D
In short: as §2

Pharbitis purpureum = test: Post-emergence herbicidal action, PHBPU; details: 80 g/ha, Table D
In short: as §2

Stellaria media [7] = test: Pre-emergence herbicidal action, STEME; details: dosage 320 g/ha, scored visually after 3 weeks vs untreated controls
In short: as §1

Stellaria media [8] = test: Post-emergence herbicidal action, STEME; details: 80 g/ha, Table D
In short: as §2

ECHCG = test: Post-emergence herbicidal action, ECHCG; details: 80 g/ha, Table C
In short: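 Weed and crop plants grown in sandy loam in the greenhouse, treated at the one-leaf stage 2–3 weeks after sowing. Damage scored visually after about 3 weeks vs untreated controls (0% = control, 100% = dead).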

Viola tricolor [9] = test: Pre-emergence herbicidal action, VIOTR; details: dosage 320 g/ha, scored visually after 3 weeks vs untreated controls
In short: as §1

Setaria viridis [10] = test: Pre-emergence herbicidal action, SETVI; details: dosage 320 g/ha, scored visually after 3 weeks vs untreated controls
In short: as §1

Setaria viridis [11] = test: Post-emergence herbicidal action, SETVI; details: 80 g/ha, Table C
In short: as §2

Alopecurus myosuroides [12] = test: Post-emergence herbicidal action, ALOMY; details: 80 g/ha, Table C
In short: as §2

Amaranthus retroflexus [13] = test: Pre-emergence herbicidal action, AMARE; details: dosage 320 g/ha, scored visually after 3 weeks vs untreated controls
In short: as §1

Viola tricolor [14] = test: Post-emergence herbicidal action, VIOTR; details: 80 g/ha, Table D
In short: as §2

Cyperus serotinus = test: Pre-emergence herbicidal action, CYPES; details: dosage 320 g/ha, scored visually after 3 weeks vs untreated controls
In short: as §1

SMILES	herbicidal activity ALOMY (Alopecurus myosuroides [1]) [%]	herbicidal activity AVEFA (Avena fatua [2]) [%]	herbicidal activity ABUTH (Abutilon theophrasti [3]) [%]	herbicidal activity MATIN (Matricaria inodora) [%]	herbicidal activity AVEFA (Avena fatua [4]) [%]	herbicidal activity AMARE (Amaranthus retroflexus [5]) [%]	herbicidal activity ABUTH (Abutilon theophrasti [6]) [%]	Herbicidal activity PHBPU (Pharbitis purpureum) [%]	Herbicidal activity STEME (Stellaria media [7]) [%]	Herbicidal activity STEME (Stellaria media [8]) [%]	Herbicidal activity ECHCG (ECHCG) [%]	herbicidal activity VIOTR (Viola tricolor [9]) [%]	herbicidal activity SETVI (Setaria viridis [10]) [%]	herbicidal activity SETVI (Setaria viridis [11]) [%]	herbicidal activity ALOMY (Alopecurus myosuroides [12]) [%]	herbicidal activity AMARE (Amaranthus retroflexus [13]) [%]	herbicidal activity VIOTR (Viola tricolor [14]) [%]	herbicidal activity CYPES (Cyperus serotinus) [%]
CSc1c(C(F)F)ccc(C(=O)Nc2nnnn2C)c1F [Example 1-37]	100	100	100	100	100	100	90	90	100	100	100	100	100	100	80	100	100	100
CC[S+]([O-])c1c(C(F)F)ccc(C(=O)Nc2nnnn2C)c1C (stereo not drawn) [Example 1-5]	100	100	100	100	100	100	90	100	90	100	100	100	100	100	100	100	100	100
CCn1nnnc1NC(=O)c1ccc(C(F)F)c(SC)c1F [Example 2-37]	90	100	100	100	90	100	100	100	100	100	100	100	100	100	80	100	90	80
CC[S+]([O-])c1c(C(F)F)ccc(C(=O)Nc2nnc(C)o2)c1I (stereo not drawn) [Example 7-75]	100	100	100	100	100	100	90	80	100	80	100	100	100	90	80	100	100	100
CCS(=O)(=O)c1c(C(F)F)ccc(C(=O)Nc2nnnn2C)c1C [Example 1-6]	100	100	100	100	100	100	90	100	100	100	100	100	100	100	100	100	100	100
CCc1c(C(=O)Nc2nnc(C)o2)ccc(C(F)F)c1[S+](C)[O-] (stereo not drawn) [Example 7-12]	100	100	100	100	90	100	100	90	100	100	100	100	100	90	90	100	100	100
CCn1nnnc1NC(=O)c1ccc(C(F)F)c(SC)c1Cl [Example 2-49]	100	100	100	100	100	100	100	100	90	100	100	100	100	100	100	100	100	90
